The results in this text go back to PubChem BioAssay (NCI).

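Tested at 5 concentrations; 48 h exposure; 96-well plates; endpoints linearly interpolated, else capped at highest concentration. At the GI50, growth is halved. TGI: concentration producing complete growth inhibition.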

Test systems include SN12C renal; SNB-19 CNS; SF-539 CNS; DU-145 prostate; OVCAR-5 ovarian; HCT-15 colon; SK-MEL-28 melanoma; OVCAR-3 ovarian; RPMI-8226 leukemia.
Assay in all cases: inhibition of tumour cell growth, NCI panel, 48 h

As to `O=c1oc2c(cc1-c1ccccc1)C(O)Oc1ccccc1-2` (stereo unspecified), the GI50 with SN12C renal was 20.5 µM; in the experiment with SNB-19 CNS it was 6.38 µM; in the experiment with SF-539 CNS, 12.4 µM; in the experiment on DU-145 prostate, 18.9 µM; in the experiment on OVCAR-5 ovarian, 31.3 µM; with HCT-15 colon, 5.04 µM. The GI50 is 3.1 µM in the experiment on SK-MEL-28 melanoma and 2.6 µM with OVCAR-3 ovarian. The TGI in the experiment on SN12C renal was over 100 µM; with SNB-19 CNS it was over 100 µM; with SF-539 CNS it was 98 µM; in the experiment with DU-145 prostate, over 100 µM; in the experiment with OVCAR-5 ovarian it was over 100 µM; in the experiment on HCT-15 colon, over 100 µM. Moreover, the figures for the TGI in the experiment on SK-MEL-28 melanoma and in the experiment with OVCAR-3 ovarian were 25 µM and over 100 µM, respectively.
On to `C[CH2][Ge]([CH2]C)([CH2]C)[O]C(=O)C([O][Ge]([CH2]C)([CH2]C)[CH2]C)c1ccccc1` (stereo unspecified), for which the GI50 in the experiment with SN12C renal is 18.2 µM; with SNB-19 CNS, 32.5 µM; in the experiment on SF-539 CNS, 17.1 µM; with OVCAR-5 ovarian, 16.3 µM; in the experiment with HCT-15 colon, 14 µM; with SK-MEL-28 melanoma, 24.6 µM. Also, the figures for the GI50 in the experiment on RPMI-8226 leukemia and in the experiment with OVCAR-3 ovarian were 11.2 µM and 16.2 µM, respectively. Further, the TGI was 82.8 µM with SN12C renal; 96.1 µM in the experiment on SNB-19 CNS; 40.5 µM in the experiment with SF-539 CNS; 74.1 µM in the experiment with OVCAR-5 ovarian; 30 µM with HCT-15 colon; over 100 µM with SK-MEL-28 melanoma. In addition, the TGI was over 100 µM in the experiment with RPMI-8226 leukemia and 37.3 µM with OVCAR-3 ovarian.
Take `O=C([CH-]C(=O)c1ccccc1)c1ccccc1.[CH3-].[CH3-].[CH3-].[Sn+4]`: the GI50 with SN12C renal is 17.3 µM; with SNB-19 CNS, 14.8 µM; in the experiment with SF-539 CNS, 21.7 µM; in the experiment on OVCAR-5 ovarian, 37.2 µM; with HCT-15 colon, 5.51 µM; with SK-MEL-28 melanoma it was 15.6 µM. For the same compound, the GI50 was 4.99 µM in the experiment on RPMI-8226 leukemia and 12.7 µM with OVCAR-3 ovarian. In addition, the TGI with SN12C renal was over 100 µM; in the experiment with SNB-19 CNS, 73 µM; with SF-539 CNS it was over 100 µM; with OVCAR-5 ovarian, 86.5 µM; in the experiment on HCT-15 colon, 27.3 µM; with SK-MEL-28 melanoma it was 47.1 µM. The values for the TGI in the experiment on RPMI-8226 leukemia and with OVCAR-3 ovarian were 26.2 µM and 71.8 µM, respectively.
For the compound `C/C(=C1/N=C(c2ccccc2)OC1=O)c1ccccc1`, the TGI with SN12C renal, in the experiment on SNB-19 CNS, in the experiment on SF-539 CNS, with DU-145 prostate, in the experiment with OVCAR-5 ovarian and with HCT-15 colon was over 100 µM each time. Besides, the TGI in the experiment on SK-MEL-28 melanoma is over 100 µM; with RPMI-8226 leukemia, 68.4 µM; in the experiment with OVCAR-3 ovarian, over 100 µM.
As to `CC(=O)Oc1ccccc1C(=O)NCCC[Se]C#N`, the GI50 in the experiment with SN12C renal was 3.2 µM; in the experiment on SNB-19 CNS, 1.57 µM; in the experiment with SF-539 CNS it was 2.04 µM; in the experiment on DU-145 prostate, 1.72 µM; with OVCAR-5 ovarian, 2.78 µM; in the experiment on HCT-15 colon it was 2.08 µM. The figures for the GI50 with SK-MEL-28 melanoma and in the experiment on RPMI-8226 leukemia were 1.89 µM and 2.41 µM, respectively. Moreover, the TGI in the experiment with SN12C renal turned out to be 12.4 µM; in the experiment on SNB-19 CNS it was 2.95 µM; with SF-539 CNS, 3.87 µM; in the experiment with DU-145 prostate it was 3.17 µM; in the experiment on OVCAR-5 ovarian it was 6.91 µM; with HCT-15 colon, 5.06 µM. For the same compound, the TGI in the experiment with SK-MEL-28 melanoma was 4.82 µM; with RPMI-8226 leukemia it was 6.04 µM.
For the compound `CCP(C)(C)=O`, the TGI in the experiment on SN12C renal, with SNB-19 CNS, in the experiment with SF-539 CNS, in the experiment with OVCAR-5 ovarian, with HCT-15 colon and in the experiment with SK-MEL-28 melanoma was over 100 µM each time. The TGI in the experiment with RPMI-8226 leukemia and in the experiment on OVCAR-3 ovarian was over 100 µM each time.
As to `CC1(C)Cc2nnsc2C2=C1C(=O)CCS2`, the TGI in the experiment with SN12C renal, with SNB-19 CNS, with SF-539 CNS, in the experiment on OVCAR-5 ovarian, in the experiment with HCT-15 colon and with SK-MEL-28 melanoma was over 100 µM each time. Moreover, the TGI in the experiment with RPMI-8226 leukemia and with OVCAR-3 ovarian was over 100 µM in each case.
Consider `C/C=C/C=C/CCCCCCCCCCCCC[C@]1(OC)C=CC(CC(=O)OC)OO1` (stereo partly specified), for which the TGI in the experiment on SN12C renal worked out at 48 µM; in the experiment on SF-539 CNS, 35.3 µM; in the experiment with HCT-15 colon, 29.5 µM; with SK-MEL-28 melanoma, 36.1 µM; with RPMI-8226 leukemia, 49.2 µM; in the experiment on OVCAR-3 ovarian, 42.2 µM. Further, the GI50 in the experiment on HCT-15 colon is 16 µM; in the experiment on OVCAR-3 ovarian, 22.1 µM.
Take `CCOC(=O)C1=C(c2ccccc2)NC(c2ccccc2)=C(C(=O)OCC)c2c1c(=O)cc[nH]c2=O`: the TGI in the experiment on SN12C renal, in the experiment on SNB-19 CNS, with SF-539 CNS, with OVCAR-5 ovarian, in the experiment with HCT-15 colon and in the experiment on SK-MEL-28 melanoma was over 100 µM throughout. Besides, the TGI in the experiment on RPMI-8226 leukemia and in the experiment with OVCAR-3 ovarian was over 100 µM throughout.
For `NCCn1cnc2nc(NC(=O)c3ccccc3)[nH]c(=O)c21`, the TGI with SN12C renal, in the experiment on SNB-19 CNS, in the experiment on SF-539 CNS, with OVCAR-5 ovarian, with HCT-15 colon and with SK-MEL-28 melanoma was over 100 µM each time. The TGI with RPMI-8226 leukemia and in the experiment on OVCAR-3 ovarian was over 100 µM throughout.
For the compound `Cc1ccccc1NC(=O)C(=O)CC(=O)C1CCOC1=O` (stereo unspecified), the TGI in the experiment with SN12C renal, in the experiment with SNB-19 CNS, in the experiment with SF-539 CNS, in the experiment on OVCAR-5 ovarian, in the experiment on HCT-15 colon and in the experiment on SK-MEL-28 melanoma was over 100 µM in each case. Also, the TGI with RPMI-8226 leukemia and in the experiment with OVCAR-3 ovarian was over 100 µM in each case.
Regarding `Cc1cccc(C)c1NC(=O)CCCC(=O)C(C#N)c1ccc(Cl)cc1` (stereo unspecified), the TGI with SN12C renal, in the experiment on SNB-19 CNS, in the experiment on SF-539 CNS, in the experiment with OVCAR-5 ovarian, in the experiment with HCT-15 colon and in the experiment on SK-MEL-28 melanoma was over 100 µM each time. Besides, the TGI in the experiment on RPMI-8226 leukemia and in the experiment with OVCAR-3 ovarian was over 100 µM throughout.
As for `COc1ccc(/C(=C\c2cc(OC)c(OC)c(OC)c2)C(=O)O)cc1`, the TGI in the experiment with SN12C renal is over 100 µM; with SNB-19 CNS it was over 100 µM; in the experiment on SF-539 CNS it was 39 µM; in the experiment with HCT-15 colon, over 100 µM; in the experiment on SK-MEL-28 melanoma, over 100 µM; in the experiment with RPMI-8226 leukemia, 84.6 µM. In addition, the TGI with OVCAR-3 ovarian is over 100 µM.
